Species on record: Rattus norvegicus
Experiment: DrugMatrix - Regimen: Daily Repeat
Type: toxicity, organism-based, Sprague-Dawley
Design: regimen Daily Repeat, gender Male, age 6-8 weeks
Conditions: in vivo, po, route oral GAVAGE, vehicle 100 % WATER; for ABSOLUTE BASOPHIL / ABSOLUTE EOSINOPHIL / ABSOLUTE LYMPHOCYTE / ABSOLUTE MONOCYTE / ABSOLUTE SEGMENTED NEUTROPHIL / BASOPHIL / EOSINOPHIL / ERYTHROCYTE COUNT / HEMATOCRIT / HEMOGLOBIN / LEUKOCYTE COUNT / LYMPHOCYTE / MEAN CORPUSCULAR HEMOGLOBIN / MEAN CORPUSCULAR HEMOGLOBIN CONCENTRATION / MEAN CORPUSCULAR VOLUME / MONOCYTE / NEUTROPHIL / NUCLEATED RED BLOOD CELLS / PLATELET COUNT: tissue Blood; for ALANINE AMINOTRANSFERASE / ALBUMIN / ALKALINE PHOSPHATASE / ASPARTATE AMINOTRANSFERASE / BLOOD UREA NITROGEN / CARBON DIOXIDE / CHLORIDE / CHOLESTEROL / CREATINE PHOSPHOKINASE / CREATININE / GLUCOSE / LACTATE DEHYDROGENASE / LIPASE / PHOSPHORUS / POTASSIUM / SODIUM / TOTAL BILIRUBIN / TOTAL PROTEIN / URIC ACID: tissue Plasma
[1] = 0 mg/kg, 72 h, dose level Control, time 3 day
[2] = 0 mg/kg, 120 h, dose level Control, time 5 day
[3] = 2 mg/kg, 72 h, dose level Low, time 3 day

With CC(C)(C)c1ccc(C(=O)CCCN2CCC(OC(c3ccccc3)c3ccccc3)CC2)cc1 [EBASTINE] the “ABSOLUTE BASOPHIL” value [1] was 0 CELLS/uL, the “ABSOLUTE EOSINOPHIL” value [1] was 123.17 CELLS/uL and the “ABSOLUTE LYMPHOCYTE” value [1] was 12677.83 CELLS/uL. The “ABSOLUTE MONOCYTE” value [1] was 66.17 CELLS/uL, the “ABSOLUTE SEGMENTED NEUTROPHIL” value [1] was 1149.5 CELLS/uL and the BASOPHIL [1] was 0%. For the same molecule, the EOSINOPHIL [1] was 0.83%, the “ERYTHROCYTE COUNT” value [1] was 5.26 x10E6/uL and the HEMATOCRIT [1] was 33.07%. For the same molecule, the HEMOGLOBIN [1] was 13.43 G/DL, the “LEUKOCYTE COUNT” value [1] was 14.02 x10E3/uL and the LYMPHOCYTE [1] was 90.17%. For the same molecule, the “MEAN CORPUSCULAR HEMOGLOBIN” value [1] was 25.62 pg, the “MEAN CORPUSCULAR HEMOGLOBIN CONCENTRATION” value [1] was 40.65 G/DL and the “MEAN CORPUSCULAR VOLUME” value [1] was 63 fL. The MONOCYTE [1] was 0.5%, the NEUTROPHIL [1] was 8.5% and the “NUCLEATED RED BLOOD CELLS” value [1] was 0.17 /100WBC. For the same molecule, the “PLATELET COUNT” value [1] was 1142.83 x10E3/uL, the “ALANINE AMINOTRANSFERASE” value [1] was 45.17 u/L and the ALBUMIN [1] was 3.78 G/DL. For the same molecule, the “ALKALINE PHOSPHATASE” value [1] was 340.17 u/L, the “ASPARTATE AMINOTRANSFERASE” value [1] was 77.33 u/L and the “BLOOD UREA NITROGEN” value [1] was 14.67 mg/dL. For the same molecule, the “CARBON DIOXIDE” value [1] was 28.67 mmol/L, the CHLORIDE [1] was 101.17 MEQ/L and the CHOLESTEROL [1] was 77.67 mg/dL. The “CREATINE PHOSPHOKINASE” value [1] was 263.67 u/L, the CREATININE [1] was 0.15 mg/dL and the GLUCOSE [1] was 169.33 mg/dL. The “LACTATE DEHYDROGENASE” value [1] was 230 u/L, the LIPASE [1] was 9.67 u/L and the PHOSPHORUS [1] was 11.8 mg/dL. The POTASSIUM [1] was 5.91 MEQ/L, the SODIUM [1] was 142.88 MEQ/L and the “TOTAL BILIRUBIN” value [1] was 0.22 mg/dL. The “TOTAL PROTEIN” value [1] was 5.7 G/DL, the “URIC ACID” value [1] was 1.35 mg/dL and the “ABSOLUTE BASOPHIL” value [2] was 0 CELLS/uL. The “ABSOLUTE EOSINOPHIL” value [2] was 125 CELLS/uL, the “ABSOLUTE LYMPHOCYTE” value [2] was 13809 CELLS/uL and the “ABSOLUTE MONOCYTE” value [2] was 351 CELLS/uL. For the same molecule, the “ABSOLUTE SEGMENTED NEUTROPHIL” value [2] was 1581.67 CELLS/uL, the BASOPHIL [2] was 0% and the EOSINOPHIL [2] was 0.67%. For the same molecule, the “ERYTHROCYTE COUNT” value [2] was 5.53 x10E6/uL, the HEMATOCRIT [2] was 34.83% and the HEMOGLOBIN [2] was 13.9 G/DL. For the same molecule, the “LEUKOCYTE COUNT” value [2] was 15.87 x10E3/uL, the LYMPHOCYTE [2] was 87.5% and the “MEAN CORPUSCULAR HEMOGLOBIN” value [2] was 25.25 pg. For the same molecule, the “MEAN CORPUSCULAR HEMOGLOBIN CONCENTRATION” value [2] was 40.08 G/DL, the “MEAN CORPUSCULAR VOLUME” value [2] was 63.05 fL and the MONOCYTE [2] was 2.17%. For the same molecule, the NEUTROPHIL [2] was 9.67%, the “NUCLEATED RED BLOOD CELLS” value [2] was 0 /100WBC and the “PLATELET COUNT” value [2] was 1044 x10E3/uL. The “ALANINE AMINOTRANSFERASE” value [2] was 50.67 u/L, the ALBUMIN [2] was 4.33 G/DL and the “ALKALINE PHOSPHATASE” value [2] was 395 u/L. For the same molecule, the “ASPARTATE AMINOTRANSFERASE” value [2] was 86 u/L, the “BLOOD UREA NITROGEN” value [2] was 15.33 mg/dL and the “CARBON DIOXIDE” value [2] was 29.33 mmol/L. The CHLORIDE [2] was 101.5 MEQ/L, the CHOLESTEROL [2] was 71.33 mg/dL and the “CREATINE PHOSPHOKINASE” value [2] was 323.17 u/L. For the same molecule, the CREATININE [2] was 0.18 mg/dL, the GLUCOSE [2] was 145.67 mg/dL and the “LACTATE DEHYDROGENASE” value [2] was 389.5 u/L. The LIPASE [2] was 9.83 u/L, the PHOSPHORUS [2] was 11.35 mg/dL and the POTASSIUM [2] was 6.39 MEQ/L. The SODIUM [2] was 142.77 MEQ/L, the “TOTAL BILIRUBIN” value [2] was 0.18 mg/dL and the “TOTAL PROTEIN” value [2] was 6.1 G/DL. The “URIC ACID” value [2] was 1.52 mg/dL, the “ABSOLUTE BASOPHIL” value [3] was 0 CELLS/uL and the “ABSOLUTE EOSINOPHIL” value [3] was 62.33 CELLS/uL. The “ABSOLUTE LYMPHOCYTE” value [3] was 12860.33 CELLS/uL, the “ABSOLUTE MONOCYTE” value [3] was 62.33 CELLS/uL and the “ABSOLUTE SEGMENTED NEUTROPHIL” value [3] was 1348.33 CELLS/uL. The BASOPHIL [3] was 0%, the EOSINOPHIL [3] was 0.33% and the “ERYTHROCYTE COUNT” value [3] was 5.22 x10E6/uL. The HEMATOCRIT [3] was 34.2%, the HEMOGLOBIN [3] was 13.67 G/DL and the “LEUKOCYTE COUNT” value [3] was 14.33 x10E3/uL. The LYMPHOCYTE [3] was 89.67%, the “MEAN CORPUSCULAR HEMOGLOBIN” value [3] was 26.2 pg and the “MEAN CORPUSCULAR HEMOGLOBIN CONCENTRATION” value [3] was 40 G/DL. The “MEAN CORPUSCULAR VOLUME” value [3] was 65.5 fL, the MONOCYTE [3] was 0.33% and the NEUTROPHIL [3] was 9.67%. The “NUCLEATED RED BLOOD CELLS” value [3] was 0 /100WBC, the “PLATELET COUNT” value [3] was 1183.33 x10E3/uL and the “ALANINE AMINOTRANSFERASE” value [3] was 47.67 u/L. The ALBUMIN [3] was 3.87 G/DL, the “ALKALINE PHOSPHATASE” value [3] was 322 u/L and the “ASPARTATE AMINOTRANSFERASE” value [3] was 75.33 u/L. For the same molecule, the “BLOOD UREA NITROGEN” value [3] was 14.33 mg/dL, the “CARBON DIOXIDE” value [3] was 32.67 mmol/L and the CHLORIDE [3] was 99.67 MEQ/L. For the same molecule, the CHOLESTEROL [3] was 75.67 mg/dL, the “CREATINE PHOSPHOKINASE” value [3] was 258.67 u/L and the CREATININE [3] was 0.13 mg/dL. The GLUCOSE [3] was 151 mg/dL, the “LACTATE DEHYDROGENASE” value [3] was 188 u/L and the LIPASE [3] was 10 u/L. For the same molecule, the PHOSPHORUS [3] was 11.23 mg/dL, the POTASSIUM [3] was 6.55 MEQ/L and the SODIUM [3] was 141.57 MEQ/L. For the same molecule, the “TOTAL BILIRUBIN” value [3] was 0.2 mg/dL, the “TOTAL PROTEIN” value [3] was 5.63 G/DL and the “URIC ACID” value [3] was 1.3 mg/dL.

Reference: ChEMBL document CHEMBL3885881, “DrugMatrix”
